Measured values reported in US9174983B2, “Pyrroloquinoline quinone disodium salt crystal and method for producing the same” (MITSUBISHI GAS CHEMICAL COMPANY, INC., priority 2011, dated 2015).

Legend:
Type in all cases: physicochemical
[1] = Water content by the Karl Fischer method
Procedure: The water content (% by weight) of each crystal was determined by the Karl Fischer method.

[2] = Dispersibility test of PQQ disodium crystals in soybean oil (precipitation time); conditions: 5 mg crystal in 200 μL soybean oil, room temperature, time until all floating crystals precipitated to the bottom, index of dispersibility
Excerpt: In this example, the PQQ disodium crystal in Crystalline Form 1 and Crystalline Form 2 was compared in dispersibility in edible oils with the conventional crystals.
After drying, the pressure in the vessel was returned to atmospheric pressure, and immediately the glass vessel was closed with a lid. […] After drying, the temperature within the flask was reduced to room temperature with nitrogen gas refluxed.
Then, they were allowed to stand still at room temperature, and the time period until all of the crystals floating on the soybean oil were precipitated to the bottom of the vessel was measured, which was used as an index of dispersibility for each crystal.

[3] = Heat stability on heating in edible oil (high performance liquid chromatography); conditions: after heating in edible oil ODO at 150° C. for 30 minutes
[4] = Thermogravimetric analysis of water content; conditions: crystal formed at 180° C.
Excerpt: However, this crystal was unstable.

[5] = resulting crystal after the drying step, % by weight

O=C([O-])c1cc(C(=O)[O-])c2c(n1)C(=O)C(=O)c1cc(C(=O)O)[nH]c1-2.[Na+].[Na+] [Comparative Example 1, reference compound]
water content ([1]; crystal as precipitated with ethanol, before drying): 14.5%
water content [1, 5]: 9.6%

pyrroloquinoline quinone disodium crystal [Crystalline Form 1]
Precipitation time [2]: 30 min
water content [1, 5]: 0.7%
water content ([1]; resulting crystal after the drying step, % by weight, listed as Example 2): 2.2%
water content ([1]; resulting crystal after the drying step, % by weight, listed as Example 3): 1.9%
amount of impurities contained in the crystal [3]: did not increase

pyrroloquinoline quinone disodium crystal [Crystalline Form 2]
Precipitation time [2]: 45 min
water content [4]: ~0%

pyrroloquinoline quinone disodium crystal [Precursor crystal, reference compound]
Precipitation time [2]: 0.5 min
Precipitation time ([2]; listed as precursor crystal): 0.5 min
water content ([1]; after disposal at 40° C. and relative humidity 75%): 12.7%
